Experimental data published in ChEMBL document CHEMBL3603746, “Discovery of New H2S Releasing Phosphordithioates and 2,3-Dihydro-2-phenyl-2-sulfanylenebenzo[d][1,3,2]oxazaphospholes with Improved Antiproliferative Activity” (J Med Chem, 2015).
The source made the active and inactive calls. No cut-off for these calls is given here.

Tests used:
[1] = Therapeutic index, ratio of IC50 for human WI38 cells to IC50 for human MCF7 cells; conditions: WI38 cells and MCF7 cells
[2] = Toxicity in human AC10 cells assessed as inhibition of cell proliferation after 24 hrs by CellTiter-Glo cell viability assay; assay type: cell-based
[3] = test system: MCF7; test: Induction of H2S release in human MCF7 cells at 400 uM measured at 6 hrs by probe 21-based fluorescence assay; assay type: functional
[4] = test system: MCF7; test: Induction of H2S release in human MCF7 cells at 200 uM measured at 6 hrs by probe 21-based fluorescence assay; assay type: functional
[5] = test system: MCF7; test: Induction of H2S release in human MCF7 cells at 200 uM measured at 24 hrs by probe 21-based fluorescence assay; assay type: functional
[6] = test system: SK-OV-3; test: Cytotoxicity against human SKOV3 cells assessed as inhibition of cell proliferation after 4 days by crystal violet assay; assay type: functional, cell-based; conditions: SK-OV-3, 96 h
[7] = test system: MDA-MB-231; test: cells; assay type: functional, cell-based; conditions: Homo sapiens, MDA-MB-231, 72 h
Description: Cytotoxicity against human MDA-MB-231 cells assessed as inhibition of cell proliferation after 72 hrs by MTS assay

[8] = test system: Salmonella typhi; test: Genotoxicity in Salmonella […] TA98 at 10 to 100 ug/plate after 48 hrs by Ames test in presence of S9 fraction; assay type: toxicity, organism-based; conditions: salmonella enterica subsp. enterica serovar […], s9, 48 h
[9] = Toxicity in human WI38 cells assessed as inhibition of cell proliferation after 4 days by crystal violet assay
[10] = test system: MCF7; test: Induction of H2S release in human MCF7 cells at 400 uM measured at 24 hrs by probe 21-based fluorescence assay; assay type: functional
[11] = Induction of H2S release in 10% PBS:MeCN solution at 5 mM incubated at 37 degC in dark condition measured at 96 hrs by 2, 6-dansyl azide probed-based fluorescence assay relative to GYY4137; assay type: physicochemical; conditions: buffer, 5000 µM
[12] = test system: Salmonella typhi; test: Genotoxicity in Salmonella […] TA100 at 10 to 100 ug/plate after 48 hrs by Ames test in absence of S9 fraction; assay type: toxicity, organism-based; conditions: salmonella enterica subsp. enterica serovar […]
[13] = Induction of H2S release in 10% PBS:MeCN solution at 5 mM incubated at 22 degC in dark condition measured at 96 hrs by 2, 6-dansyl azide probed-based fluorescence assay relative to control; conditions: buffer, 5000 µM
[14] = Induction of H2S release in 10% PBS:MeCN solution at 5 mM incubated at 37 degC in dark condition measured at 96 hrs by 1 mM 2, 6-dansyl azide probed-based fluorescence assay relative to control; conditions: buffer, 5000 µM
[15] = Therapeutic index, ratio of IC50 for human WI38 cells to IC50 for human SKOV3 cells; conditions: WI38 cells and SKOV3 cells
[16] = Effective permeability of the compound at 500 uM after 16 hrs by PAMPA
[17] = physchem; conditions: DMSO, pH 7.4
Description: Kinetic solubility of the compound in DMSO at pH 7.4 measured at 24 hrs by multiscreen filter paper-based UV absorbance analysis

[18] = test system: Salmonella typhi; test: Genotoxicity in Salmonella […] TA100 at 10 to 100 ug/plate after 48 hrs by Ames test in presence of S9 fraction; assay type: toxicity, organism-based; conditions: salmonella enterica subsp. enterica serovar […], s9, 48 h
[19] = test system: Salmonella typhi; test: Genotoxicity in Salmonella […] TA98 at 10 to 100 ug/plate after 48 hrs by Ames test in absence of S9 fraction; assay type: toxicity, organism-based; conditions: salmonella enterica subsp. enterica serovar […]
[20] = Induction of H2S release in 10% PBS:MeCN solution assessed as ratio of H2S level at 37 degC to H2S level at 22 degC at 5 mM incubated in dark condition measured at 96 hrs by 2, 6-dansyl azide probed-based fluorescence assay; conditions: buffer, 5000 µM
[21] = test system: MCF7; test: Cytotoxicity against human MCF7 cells assessed as inhibition of cell proliferation after 4 days by crystal violet assay; assay type: functional, cell-based; conditions: MCF7, 96 h
[22] = physchem; conditions: DMSO, pH 7.4; remark: listed apart in the source
Description: Kinetic solubility of the compound in DMSO at pH 7.4 measured at 3 hrs by multiscreen filter paper-based UV absorbance analysis

[23] = Therapeutic index, ratio of IC50 for human WI38 cells to IC50 for human MBA-MD-231 cells; conditions: WI38 cells and MBA-MD-231 cells
[24] = Effective permeability of the compound at 500 uM after 6 hrs by PAMPA; conditions: PAMPA
[25] = Therapeutic index, ratio of IC50 for human WI38 cells to IC50 for human PC3 cells; conditions: WI38 cells and PC3 cells
[26] = Induction of H2S release in aqueous acetonitrile solution at 400 uM measured over 4 days by probe 21-based fluorescence assay; conditions: buffer, 96 h
[27] = test system: MCF7; test: Reduction of intracellular pH in human MCF7 cells at 50 uM after 48 hrs by BCECF-AM staining-based confocal microscopic analysis; assay type: functional
[28] = test system: PC-3; test: cells; assay type: functional, cell-based; conditions: Homo sapiens, PC-3, 72 h
Description: Cytotoxicity against human PC3 cells assessed as inhibition of cell proliferation after 72 hrs by MTT assay

[29] = Toxicity in transforming growth factor alpha transgenic mouse hepatocytes assessed as inhibition of cell proliferation after 24 hrs by CellTiter-Glo cell viability assay; assay type: cell-based, Hepatocyte
[30] = test system: MCF7; test: Induction of H2S release in human MCF7 cells at 400 uM after 5 hrs by probe 21-based confocal fluorescence microscopic analysis; assay type: functional, cell-based
[31] = test system: MCF7; test: cells; assay type: functional, cell-based; conditions: Homo sapiens, MCF7, 72 h
Description: Cytotoxicity against human MCF7 cells assessed as inhibition of cell proliferation after 72 hrs by MTT assay

[32] = Induction of H2S release in aqueous acetonitrile solution at 200 uM measured over 4 days by probe 21-based fluorescence assay; conditions: buffer, 96 h
[33] = Induction of H2S release in 10% PBS:MeCN solution at 5 mM incubated at 22 degC in dark condition measured at 96 hrs by 2, 6-dansyl azide probed-based fluorescence assay relative to GYY4137; assay type: physicochemical; conditions: buffer, 5000 µM
[34] = test system: MCF7; test: Antitumor activity against human MCF7 tumor spheroids assessed as tumor growth inhibition at 100 uM after 14 days by inverted microscopic analysis relative to control; assay type: functional; conditions: MCF7, 336 h, read-out: TGI
[35] = test system: MCF7; test: Antitumor activity against human MCF7 tumor spheroids assessed as tumor growth inhibition at 800 uM after 14 days by inverted microscopic analysis relative to control; assay type: functional; conditions: MCF7, 336 h, read-out: TGI
[36] = Induction of H2S release in 10% PBS:MeCN solution at 1 mM incubated at 22 degC in dark condition measured at 72 hrs by 2, 6-dansyl azide probed-based fluorescence assay; assay type: physicochemical; conditions: buffer, 1000 µM
[37] = test system: MCF7; test: Antitumor activity against human MCF7 tumor spheroids assessed as tumor growth inhibition at 400 uM after 14 days by inverted microscopic analysis relative to control; assay type: functional; conditions: MCF7, 336 h, read-out: TGI
[38] = test system: MCF7; test: Antitumor activity against human MCF7 tumor spheroids assessed as tumor growth inhibition at 200 uM after 14 days by inverted microscopic analysis relative to control; assay type: functional; conditions: MCF7, 336 h, read-out: TGI
[39] = Induction of H2S release in 10% PBS:MeCN solution at 100 uM incubated at 37 degC in dark condition measured at 72 hrs by 2, 6-dansyl azide probed-based fluorescence assay; assay type: physicochemical; conditions: buffer
[40] = Induction of H2S release in 10% PBS:MeCN solution at 5 mM incubated at 37 degC in dark condition measured at 96 hrs by 0.2 mM 2, 6-dansyl azide probed-based fluorescence assay relative to control; assay type: physicochemical; conditions: buffer, 5000 µM
[41] = Toxicity in human AC10 cells assessed as inhibition of cell proliferation at 100 uM after 24 hrs by CellTiter-Glo cell viability assay relative to control; assay type: cell-based
[42] = Induction of H2S release in 10% PBS:MeCN solution assessed as ratio of H2S level at 37 degC to H2S level at 22 degC at 0.5 mM incubated in dark condition measured at 96 hrs by 2, 6-dansyl azide probed-based fluorescence assay; assay type: physicochemical; conditions: buffer, 500 µM
[43] = Induction of H2S release in 10% PBS:MeCN solution at 0.5 mM incubated at 37 degC in dark condition measured at 48 hrs by 1 mM 2, 6-dansyl azide probed-based fluorescence assay relative to control; assay type: physicochemical; conditions: buffer, 500 µM
[44] = Induction of H2S release in 10% PBS:MeCN solution at 0.5 mM incubated at 22 degC in dark condition measured at 48 hrs by 2, 6-dansyl azide probed-based fluorescence assay relative to 12 uM of GYY4137; assay type: physicochemical; conditions: buffer, 500 µM
[45] = Induction of H2S release in 10% PBS:MeCN solution at 0.5 mM incubated at 37 degC in dark condition measured at 48 hrs by 2, 6-dansyl azide probed-based fluorescence assay relative to 6.9 uM of GYY4137; assay type: physicochemical; conditions: buffer, 500 µM
[46] = Induction of H2S release in 10% PBS:MeCN solution at 0.5 mM incubated at 22 degC in dark condition measured at 48 hrs by 2, 6-dansyl azide probed-based fluorescence assay relative to control; assay type: physicochemical; conditions: buffer, 500 µM

| SMILES | selectivity ratio [1] | IC50 at 24 h [2] [µM] | IC50 [6] [µM] | IC50 [7] [µM] | IC50 at 4 days [9] [µM] | fold change (FC) [11] | %max [13] [%] | selectivity ratio [15] | Papp at 16 h, 500 µM [16] [×10⁻⁶ cm/s] | solubility kinetic at 24 h [17] [µg/mL] | Ratio [20] | IC50 [21] [µM] | solubility kinetic at 3 h [22] [µg/mL] | selectivity ratio [23] | Papp at 6 h, 500 µM [24] [×10⁻⁶ cm/s] | selectivity ratio [25] | IC50 [28] [µM] | IC50 at 24 h [29] [µM] | IC50 [31] [µM] | fold change (FC) [33] | further results |
| --- | --- | --- | --- | --- | --- | --- | --- | --- | --- | --- | --- | --- | --- | --- | --- | --- | --- | --- | --- | --- | --- |
| NCc1ccccc1.S=P(S)(NCc1ccccc1)c1ccc(Oc2ccccc2)cc1 (centres undefined) | 1.5 | 62.6 | 47 | 55.4 | 104 | 0.5 | 1.28 | 1.5 | 0.97 | 180 | 2.2 | 36.3 | 200 | 1.5 | 0.19 | 1.5 | 45.6 | 23.5 | 67.6 | 0.9 | Activity [3]: 48.2 µM; Activity [4]: 41.5 µM; Activity [5]: 93.4 µM; Activity [8]: Non-toxic; Activity [10]: 74.6 µM; Activity [12]: Non-toxic; %max [14]: 2.81%; Activity [18]: Non-toxic; Activity [19]: Non-toxic; Activity [26]: 17.19 µM; pH [27]: 6.75; Activity [30]: Active; Activity [32]: 9.03 µM |
| S=P1(c2ccccc2)Nc2ccccc2O1 (centres undefined) | – | 98 | 6.12 | – | > 50 | – | – | 8.2 | – | – | – | 5.7 | – | – | – | – | – | 26.3 | – | – | inhibition of growth at 100 µM [34]: 69.7%; inhibition of growth at 800 µM [35]: 91%; Activity [36]: 150 µM; inhibition of growth at 400 µM [37]: 83.7%; inhibition of growth at 200 µM [38]: 75.3%; Activity [39]: 77.6 µM |
| C1COCCN1.CC(C)OP(=S)(S)c1ccc(Oc2ccccc2)cc1 (centres undefined) | 1.4 | – | 50.2 | 94.8 | 72.8 | < 0.1 | 0.06 | 1.4 | 0.0051 | > 400 | 2.6 | 51.4 | > 400 | 1.4 | 0.0066 | 1.4 | 50.8 | – | 178 | < 0.1 | %max [40]: 0.15%; inhibition at 24 h, 100 µM [41]: 28.6% |
| C1CSCCN1.S=P(S)(N1CCSCC1)N1CCSCC1 | 1.5 | – | 15.8 | – | 30.4 | – | – | 1.5 | – | – | – | 20.4 | – | 1.5 | – | 1.5 | – | 120 | – | – | Ratio [42]: 1.3; %max [43]: 62.6%; fold change (FC) [44]: 40; fold change (FC) [45]: 90.7; inhibition at 24 h, 100 µM [41]: 35.6%; %max [46]: 48.5% |
